Laboratory results from US9925235B2, “Tilapia piscidins for use in enhancement of wound healing” (Academia Sinica, priority 2015, dated 2018).
Peptide text beside a SMILES is read from it.

What was measured:
MRSA [1] = details: 24 h
[2] = In vivo toxicity of TP3, intramuscular injection, blood biochemistry; details: mice, i.m. 2 mg/mouse
Procedure: To determine the toxicity of TP3, TP3 was dissolved in phosphate-buffered saline (PBS; pH 7.4) and administered as intramuscular bolus injections in the left thigh (2 mg/mouse). […] To study the effect of treatment on biochemistry, mice (n=6 in each group) were treated with PBS (control). Blood samples (0.2 ml) were collected day 1, 3 and 6 after the final injection of TP3, and used to determine the serum levels of glutamic oxaloacetic transaminase (GOT), glutamic pyruvic transaminase (GPT), blood urea nitrogen (BUN), creatinine (CRE), total glucose (GLU), and creatine phosphokinase (CPK).

MRSA [3] = assay: Mouse model of MRSA sepsis, TP4; format: in vivo, Balb/c mice; details: for Mean ± SD count, Blood / Mean ± SD count, Liver / Mean ± SD count, Mesenteric lymph nodes / Mean ± SD count, Peritoneum / Mean ± SD count, Spleen: 48 hours after the last treatment; for survival rate: 8 days after MRSA infection, i.p. 10 min after MRSA, TP4 0.005 mg/g, vancomycin and methicillin 0.01 mg/g; for % lethality: monitored for 2 day after injection, MRSA 10^6 CFU i.p.
Procedure: (§1) Female Balb/c mice (6-8 weeks old) were injected intraperitoneally with 10^6 CFU MRSA per mouse. Ten minutes after MRSA injection, mice were injected intraperitoneally with vancomycin (0.01 mg/g mouse body weight), methicillin (0.01 mg/g mouse body weight), or TP4 (0.005 mg/g mouse body weight). In a second set of experiments, mice were given intraperitoneal injections of TP4 (0.005 mg/g mouse body weight) at 10, 60, 120, or 180 min after MRSA injection. Survival rate and status were recorded every 24 h for up to 192 h. To examine bacterial dissemination, mice were sacrificed at 48 h after injection with antibiotics or TP4, and the bacterial numbers in blood, peritoneum, spleen, liver, and mesenteric lymph nodes were recorded. Colony counts from the diluted bacterial solutions were expressed relative to those at the start of treatment. These experiments consisted of four groups, and each group contained 10 mice.
Infected mice were untreated, or treated with TP4, methicillin, or vancomycin via i.p. injection. Bacterial numbers in blood, peritoneum, spleen, liver, and mesenteric lymph nodes were subsequently recorded. Colony counts from the diluted bacterial solutions are expressed relative to those at the start of treatment. Each value represents the mean value from three determinations±standard deviation (SD).

MRSA [4] = assay: Mouse wound healing model, wound closure and microbial load, TP3; format: in vivo, Balb/c mice
Procedure: Female Balb/c mice (6-8 weeks old) were used for wound healing experiments. All mice were housed individually to prevent fighting and further damage to the wounds, and they were provided with food and water ad libitum. Mice were maintained on a 12 h light: dark cycle at room temperature, and acclimatized to the environment for at least a week before use in experiments. All researchers wore caps, sterile gloves, gowns, and shoe covers when handling mice. Hair was removed from the back of the mice by shaving, and a full thickness wound (1 cm in diameter) was then created in the exposed region. Each wound was inoculated with 50 μl of broth mix containing 10^6 cfu (colony forming units) of S. aureus. At 5 min after inoculation, 50 μl TP3 (2 mg/ml) in a total volume of 0.1 ml were applied. Thirty minutes after treatment, wounds were covered with Tegaderm (3M, St. Paul, Minn.) to maintain uniformity, and to prevent the mice from removing the treatments. Based on initial experiments, we examined the wounds at 0, 3, 5 and 19 days post-injury, so as not to disturb the infection. Such examinations captured the transitions from inflammatory to regenerative, and regenerative to resolving phases of wound healing. Animals were subsequently euthanized by CO2 inhalation and the wounds assessed. Four individuals in each group were examined at each time point for each experiment. Each wound was measured and then removed from the animal, with unwounded skin taken from the contralateral dorsum as a control. Each biopsy was bisected with three sections being used for tensiometry and histology, and two sections for quantitative determination of microbial load. Wound healing studies were repeated in triplicate.
Tracings were taken immediately after injury. For uncontaminated wounds, wound size was determined every second day. For contaminated wounds, mice were euthanized at days 3, 5, 19 and tracings of the wound edges were made. Wound areas were determined using the Macintosh Adobe Photoshop program, Histogram Analysis. The percentage of wound contraction was calculated as follows: % Wound contraction=(A0−At)/A0×100, where A0 is the original wound area, and At is the area of wound at the time of biopsy on every two days, accordingly.
Multidrug-resistant strains of Staphylococcus aureus commonly associated with human wound infections were selected to generate a polymicrobial solution. The MRSA strain is a clinical isolate from stool obtained from Taipei City Hospital (Heping Fuyou branch). The initial inoculum was prepared by culturing aerobic bacteria in Tryptic Soy Broth (TSB) overnight at 37° C. Broths were subsequently centrifuged at 1000 rpm for 15 min, and resuspended in TSB with 15% glycerol, or chopped meat extract with 15% glycerol (for aerobic bacteria). The concentration was adjusted to 10^6 cfu/50 μl, and stored at −80° C. Prior to wound application, […]

MRSA [5] = assay: Mouse model of MRSA sepsis, TP3; format: in vivo, Balb/c mice; details: for Mean ± SD count, Blood / Mean ± SD count, Liver / Mean ± SD count, Mesenteric lymph nodes / Mean ± SD count, Peritoneum / Mean ± SD count, Spleen: 48 h after injection; for survival rate: 8 days after MRSA infection, i.p. 10 min after MRSA, TP3 0.005 mg/g, vancomycin and methicillin 0.01 mg/g; for % lethality: monitored for 2 day after injection, MRSA 1 × 10^6 CFU i.p.
Procedure: as §1, with “weight), methicilin” for “weight), methicillin”, “or TP3” for “or TP4”, “of TP3” for “of TP4”, “injection. The survival” for “injection. Survival”, “or TP3,” for “or TP4,”, “contained 5” for “contained 10”

MRSA [6] = assay: Histology and IHC of wound tissue, TP3; format: in vivo, Balb/c mice; details: wounds
Procedure: Skin tissues were removed and fixed as previously described. In brief, the cryosections were fixed with 4% formaldehyde, and the tissue samples were stained with hematoxylin/eosin, Giemsa, or Gram stain. IHC was analyzed by three independent investigators. Images were taken using a BX-51 microscope (Olympus, Japan).

SMILES	Mean ± SD count, Blood (MRSA [3])	Mean ± SD count, Liver (MRSA [3])	Mean ± SD count, Mesenteric lymph nodes (MRSA [3])	Mean ± SD count, Peritoneum (MRSA [3])	Mean ± SD count, Spleen (MRSA [3])	survival rate (MRSA [3]) [%]	% lethality (MRSA [3])	Bacterial Count (MRSA [4]; day 0)	Bacterial Count (MRSA [4]; day 5)	Mean ± SD count, Blood (MRSA [5])	Mean ± SD count, Liver (MRSA [5])	Mean ± SD count, Mesenteric lymph nodes (MRSA [5])	Mean ± SD count, Peritoneum (MRSA [5])	Mean ± SD count, Spleen (MRSA [5])	survival rate (MRSA [5]) [%]	% lethality (MRSA [5])	other results
CC[C@H](C)[C@H](NC(=O)[C@H](CC(C)C)NC(=O)[C@H](CO)NC(=O)[C@H](Cc1c[nH]cn1)NC(=O)[C@@H](NC(=O)[C@H](Cc1c[nH]cn1)NC(=O)[C@H](CCCCN)NC(=O)CNC(=O)[C@@H](NC(=O)[C@H](CO)NC(=O)[C@H](Cc1ccccc1)NC(=O)[C@H](CC(C)C)NC(=O)CNC(=O)CNC(=O)[C@@H](NC(=O)[C@@H](NC(=O)[C@H](Cc1c[nH]cn1)NC(=O)[C@H](Cc1c[nH]cn1)NC(=O)[C@@H](NC(=O)[C@@H](N)Cc1ccccc1)[C@@H](C)CC)[C@@H](C)CC)[C@@H](C)CC)C(C)C)[C@@H](C)CC)C(=O)N[C@@H](Cc1c[nH]cn1)C(=O)NCC(=O)N[C@@H](Cc1c[nH]cn1)C(=O)O [TP3, Tilapia piscidin 3] (H-FIHHIIGGLFSVGKHIHSLIHGH-OH)	–	–	–	–	–	–	–	–	–	–	–	–	–	–	–	–	minimal inhibitory concentration (MIC) (MRSA [1]): > 3.9 µg/mL; BUN ([2]; day 1): 15.2 ± 2.4^A mg/dl; CPK ([2]; day 1): 114 ± 21.9^A U/l; GLU ([2]; day 1): 258.6 ± 28.2^AB mg/dl; GOT ([2]; day 1): 122.6 ± 25.7^C U/l; GPT ([2]; day 1): 71.3 ± 8.6^C U/l; BUN ([2]; day 3): 17.4 ± 2.3^A mg/dl; CPK ([2]; day 3): 88.3 ± 5.8^B U/l; GLU ([2]; day 3): 219.8 ± 8.2^A mg/dl; GOT ([2]; day 3): 47.3 ± 5.9^A U/l; GPT ([2]; day 3): 36.2 ± 2.7^AB U/l; BUN ([2]; day 6): 20.2 ± 1.8^AB mg/dl; CPK ([2]; day 6): 129 ± 15.3^AB U/l; GLU ([2]; day 6): 290.8 ± 53.5^B mg/dl; GOT ([2]; day 6): 46 ± 8.08^A U/l; GPT ([2]; day 6): 35 ± 5.9^AB U/l
COc1cccc(OC)c1C(=O)N[C@@H]1C(=O)N2[C@@H]1SC(C)(C)[C@@H]2C(=O)O [methicillin]	4.1 × 10^7 ± 1.3 × 10^7B CFU/mL	2.7 × 10^8 ± 3.3 × 10^8B CFU/mL	4.1 × 10^7 ± 3 × 10^7C CFU/mL	2.3 × 10^9 ± 2 × 10^9B CFU/mL	1.5 × 10^8 ± 2.1 × 10^7B CFU/mL	0	20^B %	5.2 × 10^4 CFU/10 μl	Fatal	5.8 × 10^7 ± 1.7 × 10^7B CFU/ml	3.7 × 10^8 ± 8.1 × 10^7B CFU/ml	6.4 × 10^7 ± 5.3 × 10^7B CFU/ml	4.9 × 10^9 ± 2.2 × 10^9B CFU/ml	9.5 × 10^8 ± 1.9 × 10^8B CFU/ml	0	20^B %	–
CN[C@H](CC(C)C)C(=O)N[C@H]1C(=O)N[C@@H](CC(N)=O)C(=O)N[C@H]2C(=O)N[C@H]3C(=O)N[C@H](C(=O)N[C@H](C(=O)O)c4cc(O)cc(O)c4-c4cc3ccc4O)[C@H](O)c3ccc(c(Cl)c3)Oc3cc2cc(c3O[C@@H]2O[C@H](CO)[C@@H](O)[C@H](O)[C@H]2O[C@H]2C[C@](C)(N)[C@H](O)[C@H](C)O2)Oc2ccc(cc2Cl)[C@H]1O [vancomycin]	8 × 10^4 ± 1.1 × 10^4B CFU/mL	1.3 × 10^7 ± 1.8 × 10^3B CFU/mL	1 × 10^7 ± 4 × 10^4B CFU/mL	1.5 × 10^6 ± 1 × 10^3A CFU/mL	1.4 × 10^7 ± 1.1 × 10^4B CFU/mL	80	10^AB %	4.9 × 10^4 CFU/10 μl	2.6 × 10^3 CFU/10 μl	8 × 10^3 ± 1.3 × 10^5B CFU/ml	1.7 × 10^8 ± 3.8 × 10^7B CFU/ml	2 × 10^8 ± 4.4 × 10^6A CFU/ml	2.7 × 10^9 ± 1.5 × 10^9A CFU/ml	1.8 × 10^3 ± 8.4 × 10^7B CFU/ml	80	0^A %	Bacterial Count (MRSA [4]; day 3): 3 × 10^5 CFU/10 μl; Bacterial Count (MRSA [4]; day 19): 42 CFU/10 μl; overall epidermal maturation compared to the TP3 group (MRSA [6]): displayed impairment in overall epidermal maturation
